Results on six molecules are retold here after patent publication US20240060138A1, “BREAST CANCER-RESPONSE PREDICTION SUBTYPES” (The Regents of The University of California, priority 2022, published 2024).

The assay has as its system high-risk stage II and III early breast cancer. The experiment in a line: I-SPY2 neoadjuvant platform trial: pCR rate by arm within receptor or response-predictive subtype. The format is in vivo, women. An excerpt:
I-SPY2 is an ongoing, open-label, adaptive, randomized phase II, multicenter trial of neoadjuvant therapy for early-stage breast cancer (NCT01042379; IND 105139). It is a platform trial evaluating multiple investigational arms in parallel against a common standard of care control arm. The primary endpoint is pCR (ypT0/is, ypN0), defined as the absence of invasive cancer in the breast and regional nodes at the time of surgery. As I-SPY2 is modified intent-to-treat, patients receiving any dose of study therapy are considered evaluable; those who switch to non-protocol therapy, progress, forgo surgery, or withdraw are deemed ‘non-pCR’. Secondary endpoints include residual cancer burden (RCB) and event-free and distant relapse-free survival (EFS and DRFS) (Symmans et al., 2007)
Assessments at screening establish eligibility and classify participants into subtypes defined by hormone receptor (HR) status, HER2, and 70-gene signature (MammaPrint®) status (Cardoso et al., 2016; Piccart et al., 2021). Adaptive randomization in I-SPY2 preferentially assigns patients to trial arms according to continuously updated Bayesian probabilities of pCR rates within each biomarker signature; 20% of patients are randomly assigned to the control arm (Berry, 2011). […] An arm can be dropped for futility if the predicted probability of success in a future 300-patient, 1:1 randomized, phase 3 trial drops below 10%, or graduate for efficacy if the probability of success reaches 85% or greater in any biomarker signature. The clinical control arm for the efficacy analysis uses patients randomized throughout the entire trial. […] During the design of each new experimental arm the investigators together with the pharmaceutical sponsor decide in which of the 10 a priori defined biomarker signatures the drug will be tested. Upon entry to the trial, participants are dichotomized into hormone receptor (HR) negative versus positive, HER2 positive versus negative, and MammaPrint High1 [MP1] versus High2 [MP2] status.
This correlative study involved 987 women with high-risk stage II and III early breast cancer who were enrolled in 10 arms of I-SPY2: the first 9 experimental arms that completed evaluation and the control arm as shown in the schema of FIG. 1A. […] For HER2+ patients, N was administered instead of H, whereas M and trebananib were administered in addition to H. Dose reductions and toxicity management were specified in the protocol. Adverse events were collected according to the NCI Common Terminology Criteria for Adverse Events (CTCAE) version 4.0. After completion of AC, patients underwent lumpectomy or mastectomy and nodal sampling, with choice of surgery at the discretion of the treating surgeon. Detailed descriptions of the design, eligibility, and efficacy of these 9 experimental arms of the I-SPY2 trial have been reported previously (Chien et al., 2019; Clark et al., 2021; Nanda et al., 2020; Park et al., 2016; Pusztai et al., 2021; Rugo et al., 2016).
A major goal of a response-predictive schema is to increase the pCR rate in the population and to maximize the probability of pCR for an individual patient (R2).

Turning to ganitumab, the pCR rate (RPS-7 S4: HR-/HER2low/Immune-/DRD-) was 40%.

Consider veliparib/carboplatin [VC], for which the pCR rate is recorded as 60% (HER2-/Immune-/DRD+ (RPS-5)); 60% (RPS-7 S5: HER2=0.or.low/Immune-/DRD+); 75% (TN, DRD+ patients); 74% (TN, Immune+/DRD+ class); 80% (TN, Immune-/DRD+ class).

Consider pertuzumab, for which the pCR rate (HER2+/BP-Luminal class (RPS-5)) is 8%.

Regarding `NC1(c2ccc(-c3nc4ccn5c(=O)[nH]nc5c4cc3-c3ccccc3)cc2)CCC1` [MK2206, 8-[4-(1-aminocyclobutyl)phenyl]-9-phenyl-2H-[1,2,4]triazolo[3,4-f][1,6]naphthyridin-3-one], the pCR rate is, setting by setting: (HER2+/BP-HER2 or BP-Basal patients (RPS-5)) 48%; (HER2+/BP-Luminal class (RPS-5)) 60%; (HER2-/Immune-/DRD- (RPS-5)) 20%; (RPS-7 S2: HER2+/BP Luminal) 60%; (RPS-7 S6: HER2=0/Immune-/DRD-) 20%; (RPS-7 S7: HR+HER2low/Immune-DRD-) 20%.

On to pembrolizumab, for which the pCR rate (HER2-/Immune+ (RPS-5)) is 79%; the pCR rate (HR+HER2- receptor subtype) was 30%; the pCR rate (RPS-7 S3: HER2=0.or.low/Immune+) is recorded as 79%; the pCR rate (TN receptor subtype) is given as 66%; the pCR rate (TN, Immune+ patients) was 89%; the pCR rate (TN, Immune+/DRD+ class) was 92%. Besides, the pCR rate reads like this: (TN, Immune+/DRD- class) 80%; (TN, Immune-/DRD+ class) 33%.

On to `CCOc1cc2ncc(C#N)c(Nc3ccc(OCc4ccccn4)c(Cl)c3)c2cc1NC(=O)/C=C/CN(C)C` [N, neratinib], for which the pCR rate (RPS-7 S6: HER2=0/Immune-/DRD-) was 20%.
